Test results from patent publication US20240360113A1, “AMINOARYL-INTEGRIN AGONISTS COMPOUNDS” (Texas Heart Institute, priority 2021, published 2024).

Legend:
αLβ2/ICAM-1 = molecular target: T1, αLβ2/ICAM-1 (Homo sapiens, UniProt P05107+P20701); test: Static cell adhesion assay, HSB cells on ICAM-1 (LFA-1; LAD); assay type: cell-based; settings: RFU of compound / RFU of THI0349, both at the same concentration
T1 construct: The Jurkat (VCAM-1 assays) and HSB (ICAM-1 assays) cell lines were obtained from American Type Culture Collection; endogenous in cells; host or cells: HSB (ATCC)
T1 sequence (P20701 26-1170): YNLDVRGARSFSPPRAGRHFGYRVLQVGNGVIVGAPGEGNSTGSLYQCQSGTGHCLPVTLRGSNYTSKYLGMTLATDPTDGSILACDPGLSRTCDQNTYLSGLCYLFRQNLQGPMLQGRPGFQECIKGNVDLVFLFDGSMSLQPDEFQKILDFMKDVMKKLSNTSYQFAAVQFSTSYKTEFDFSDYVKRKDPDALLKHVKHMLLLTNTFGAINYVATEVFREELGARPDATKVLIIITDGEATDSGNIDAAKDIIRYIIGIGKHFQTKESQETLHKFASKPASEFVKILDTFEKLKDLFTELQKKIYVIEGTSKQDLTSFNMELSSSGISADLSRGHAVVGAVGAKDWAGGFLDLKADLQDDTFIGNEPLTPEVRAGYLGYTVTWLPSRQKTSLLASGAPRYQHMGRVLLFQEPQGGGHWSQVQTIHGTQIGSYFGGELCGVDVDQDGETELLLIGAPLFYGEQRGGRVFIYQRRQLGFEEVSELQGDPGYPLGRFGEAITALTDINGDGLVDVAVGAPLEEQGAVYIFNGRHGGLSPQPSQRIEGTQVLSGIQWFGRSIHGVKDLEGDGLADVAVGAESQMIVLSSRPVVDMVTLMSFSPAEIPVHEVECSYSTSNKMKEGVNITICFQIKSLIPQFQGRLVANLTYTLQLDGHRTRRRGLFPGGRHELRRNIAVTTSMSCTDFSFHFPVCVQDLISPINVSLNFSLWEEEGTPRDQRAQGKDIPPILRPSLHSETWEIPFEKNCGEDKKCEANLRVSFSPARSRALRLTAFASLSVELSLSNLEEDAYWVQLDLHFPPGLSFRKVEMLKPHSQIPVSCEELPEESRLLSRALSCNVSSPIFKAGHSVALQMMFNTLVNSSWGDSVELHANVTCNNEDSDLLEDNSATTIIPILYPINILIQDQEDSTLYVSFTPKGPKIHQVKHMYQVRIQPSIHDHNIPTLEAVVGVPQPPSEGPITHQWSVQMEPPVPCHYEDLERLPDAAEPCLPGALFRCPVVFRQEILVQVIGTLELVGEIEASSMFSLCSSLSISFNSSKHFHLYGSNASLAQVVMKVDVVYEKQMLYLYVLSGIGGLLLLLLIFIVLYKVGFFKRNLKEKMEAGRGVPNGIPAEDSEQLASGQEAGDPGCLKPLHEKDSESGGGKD
T1 sequence (P05107 23-769): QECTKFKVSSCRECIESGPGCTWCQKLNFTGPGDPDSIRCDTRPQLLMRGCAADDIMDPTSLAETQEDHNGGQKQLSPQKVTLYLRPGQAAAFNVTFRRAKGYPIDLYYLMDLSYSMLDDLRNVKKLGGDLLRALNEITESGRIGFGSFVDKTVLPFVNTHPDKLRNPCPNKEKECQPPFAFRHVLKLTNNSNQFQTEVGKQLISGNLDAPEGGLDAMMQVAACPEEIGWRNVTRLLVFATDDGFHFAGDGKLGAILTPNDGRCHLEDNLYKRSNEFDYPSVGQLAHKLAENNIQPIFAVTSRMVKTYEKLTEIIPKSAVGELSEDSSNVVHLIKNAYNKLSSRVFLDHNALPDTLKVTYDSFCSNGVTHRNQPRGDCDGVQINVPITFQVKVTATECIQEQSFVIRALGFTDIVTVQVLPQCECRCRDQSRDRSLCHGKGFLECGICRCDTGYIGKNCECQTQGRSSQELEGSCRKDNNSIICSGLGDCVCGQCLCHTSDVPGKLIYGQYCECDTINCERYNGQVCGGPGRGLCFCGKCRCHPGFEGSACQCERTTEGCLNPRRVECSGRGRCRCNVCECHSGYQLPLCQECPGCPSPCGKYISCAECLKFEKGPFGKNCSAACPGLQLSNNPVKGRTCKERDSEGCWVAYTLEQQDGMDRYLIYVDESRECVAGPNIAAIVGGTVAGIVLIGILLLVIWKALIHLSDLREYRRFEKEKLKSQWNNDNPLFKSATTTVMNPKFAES
Experimental: (§1) For in vitro cell adhesion assays, compounds were dissolved in DMSO to make a series of stock solutions such that a 1:100 dilution in assay buffer would yield the desired final working concentrations in 1% DMSO (vehicle). Human VCAM-1 and ICAM-1 were purchased from R&D Systems (Minneapolis, MN). The Jurkat (VCAM-1 assays) and HSB (ICAM-1 assays) cell lines were obtained from American Type Culture Collection (Manassas, VA) and were maintained in recommended culture media.
(§2) Assays were performed as previously described in Vanderslice et al., (2010), Biochem Biophys Res Commun 400, 619-624; and Vanderslice et al., (2013) J Biol Chem 288, 19414-19428. VCAM-1 or ICAM-1 ligand in 50 μL of 50 mM Tris-HCl (pH 7.4), 150 mM NaCl, (TBS) was added to wells of a 96-well plate and allowed to coat overnight at 4° C. To maximize the window to evaluate agonist activity, a sub-optimal coating concentration of ligand was used, typically 0.5 and 5 μg/mL in 50 μL TBS for VCAM-1 and ICAM-1 respectively. This ligand concentration corresponded approximately to that which would yield <5% adhesion as determined by dose-response curves. Briefly, 2×10^6 cells were labeled for 30 minutes with calcein-AM (Molecular Probes), washed, resuspended in binding buffer, and added to triplicate wells of ligand-coated plates (2×10^5 cells/well) that had been blocked with 2% BSA. After a 30-minute incubation at 37° C., the plates were washed 3 times with binding buffer, the adherent cells were lysed, and fluorescence was measured on a Tecan Safire^2 plate reader. The binding buffer was PBS with 1 mM MgCl2, 50% FBS for α4β1/VCAM-1 assays and PBS with 2 mM MgCl2, 5 mM EGTA, 50% FBS for αLβ2/ICAM-1 assays. EC50 is defined as the concentration of compound required to achieve 50% of the maximal response.
In relation to LAD (Leukocyte Adhesion Deficiency), LFA-1 ratios are determined by dividing the relative fluorescence units (RFU) of each compound at a concentration of 3 μM over that of the reference standard of THI0349, also at 3 μM, (RFU Compound/RFU of THI0349). Log Ps were calculated by either Chemdraw® version 12 (CambridgeSoft) or ACD/Chemsketch® (ACD/Labs).

α4β1/VCAM-1 = molecular target: T2, α4β1/VCAM-1 (Homo sapiens, UniProt P05556+P13612); test: Static cell adhesion assay, Jurkat cells on VCAM-1 (VLA-4 agonist activity); assay type: cell-based; settings: EC50 relative to THI0349 (average 11 uM) run on the same plate; Jurkat cells, 50% FBS
T2 construct: The Jurkat (VCAM-1 assays) and HSB (ICAM-1 assays) cell lines were obtained from American Type Culture Collection; endogenous in cells; host or cells: Jurkat (ATCC)
T2 sequence (P13612 34-1032): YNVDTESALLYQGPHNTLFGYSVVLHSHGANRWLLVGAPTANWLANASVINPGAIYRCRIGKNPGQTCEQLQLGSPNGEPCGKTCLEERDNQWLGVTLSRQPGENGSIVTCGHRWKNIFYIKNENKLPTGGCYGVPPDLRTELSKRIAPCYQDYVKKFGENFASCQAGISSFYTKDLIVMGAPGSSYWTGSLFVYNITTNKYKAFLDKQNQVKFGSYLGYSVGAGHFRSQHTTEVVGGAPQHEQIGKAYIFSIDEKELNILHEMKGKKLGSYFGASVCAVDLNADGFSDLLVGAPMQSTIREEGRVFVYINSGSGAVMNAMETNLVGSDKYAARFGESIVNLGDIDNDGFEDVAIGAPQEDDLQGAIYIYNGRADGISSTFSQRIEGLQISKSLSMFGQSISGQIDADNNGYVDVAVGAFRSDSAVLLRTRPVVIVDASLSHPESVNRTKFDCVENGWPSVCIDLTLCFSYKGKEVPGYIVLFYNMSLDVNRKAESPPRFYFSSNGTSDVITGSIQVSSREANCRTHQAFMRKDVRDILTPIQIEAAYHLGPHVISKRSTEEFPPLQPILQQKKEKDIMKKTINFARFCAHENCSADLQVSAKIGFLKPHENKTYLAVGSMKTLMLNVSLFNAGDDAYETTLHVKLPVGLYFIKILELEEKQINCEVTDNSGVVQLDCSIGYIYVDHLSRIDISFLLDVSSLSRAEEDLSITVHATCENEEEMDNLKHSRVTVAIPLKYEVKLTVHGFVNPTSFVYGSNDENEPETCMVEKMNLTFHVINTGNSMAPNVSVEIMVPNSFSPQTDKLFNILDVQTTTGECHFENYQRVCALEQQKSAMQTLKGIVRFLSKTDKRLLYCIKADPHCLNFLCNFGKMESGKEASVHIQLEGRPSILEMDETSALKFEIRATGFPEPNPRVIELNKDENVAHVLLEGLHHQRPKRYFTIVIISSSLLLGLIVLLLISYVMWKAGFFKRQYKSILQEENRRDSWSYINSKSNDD
T2 sequence (P05556 21-798): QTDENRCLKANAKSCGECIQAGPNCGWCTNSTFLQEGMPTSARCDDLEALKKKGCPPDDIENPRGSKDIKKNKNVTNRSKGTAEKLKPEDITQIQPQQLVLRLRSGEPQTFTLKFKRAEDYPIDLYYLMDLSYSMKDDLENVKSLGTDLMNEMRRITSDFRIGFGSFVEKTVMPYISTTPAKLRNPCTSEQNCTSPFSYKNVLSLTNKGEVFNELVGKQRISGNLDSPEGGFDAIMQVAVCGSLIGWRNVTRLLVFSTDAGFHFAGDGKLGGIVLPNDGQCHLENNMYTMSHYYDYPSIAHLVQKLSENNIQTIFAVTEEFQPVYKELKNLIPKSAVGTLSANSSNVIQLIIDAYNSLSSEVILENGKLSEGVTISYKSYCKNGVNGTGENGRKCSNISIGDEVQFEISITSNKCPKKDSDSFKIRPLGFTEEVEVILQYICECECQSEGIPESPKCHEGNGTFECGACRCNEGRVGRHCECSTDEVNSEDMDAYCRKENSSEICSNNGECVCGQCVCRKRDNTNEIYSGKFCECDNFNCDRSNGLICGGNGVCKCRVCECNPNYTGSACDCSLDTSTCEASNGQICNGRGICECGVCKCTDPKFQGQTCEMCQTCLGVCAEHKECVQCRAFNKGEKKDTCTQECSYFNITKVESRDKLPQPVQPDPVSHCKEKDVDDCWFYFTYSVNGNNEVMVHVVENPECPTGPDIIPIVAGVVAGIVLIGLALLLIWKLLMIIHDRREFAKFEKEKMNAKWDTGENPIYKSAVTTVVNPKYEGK
Experimental: as §1, §2

SMILES | LAD Raw Fluorescence Units against LFA-1; Dose 3 µM; Ratio of raw counts Compound/THI0349 (αLβ2/ICAM-1) | Group against VCAM (α4β1/VCAM-1)
COc1ccc(CCc2csc(N(Cc3cccc(OC)c3)Cc3cccc(OC)c3)n2)cc1 [Compound 71, N,N-bis(3-methoxybenzyl)-4-(4-methoxyphenethyl)thiazol-2-amine] | 0.1 | III (Group III more than five times the EC50 of THI0349)
COc1ccc(CCCNC(=O)c2csc(N(Cc3cccc(OC)c3)Cc3cccc(OC)c3)n2)cc1 [Compound 23, 2-(bis(3-methoxybenzyl)amino)-N-(3-(4-methoxyphenyl)propyl)thiazole-4-carboxamide] | 0.85 | I (Group I maintains at least the same potency or better up to more than twice that of the EC50 of THI0349 ran on the same plate)
COc1cccc(CN(Cc2cccc(N3CCOCC3)c2)c2nc(CN3CCOCC3)cs2)c1 [Compound 78, N-(3-methoxybenzyl)-N-(3-morpholinobenzyl)-4-(morpholinomethyl)thiazol-2-amine] | 0.4 | II (Group II is more than twice that of THI0349 but less than five times THI0349's EC50)
COc1cccc(CN(Cc2cccc(OC)c2)c2nc(COCCOc3cccc(N(C)C)c3)cs2)c1 [Compound 48, 4-((2-(3-(dimethylamino)phenoxy)ethoxy)methyl)-N,N-bis(3-methoxybenzyl)thiazol-2-amine] | 0.43 | I (Group I maintains at least the same potency or better up to more than twice that of the EC50 of THI0349 ran on the same plate)
COc1cccc(CN(Cc2cccc(OC)c2)c2nc(COCCOCCOCc3ccccc3C)cs2)c1 [Compound 54, N,N-bis(3-methoxybenzyl)-4-((2-(2-((2-methylbenzyl)oxy)ethoxy)ethoxy)methyl)thiazol-2-amine] | 1.8 | I (Group I maintains at least the same potency or better up to more than twice that of the EC50 of THI0349 ran on the same plate)
COc1ccc(CCCOCc2csc(N(Cc3cccc(OC)c3)Cc3cccc(OC)c3)n2)cc1 [Compound 39, N,N-bis(3-methoxybenzyl)-4-((3-(4-methoxyphenyl)propoxy)methyl)thiazol-2-amine] | 0.23 | III (Group III more than five times the EC50 of THI0349)
COc1cccc(CN(Cc2cccc(OC)c2)c2nc3c(s2)CN(C(=O)OC(C)(C)C)CC3)c1 [Compound 70, tert-butyl 2-(bis(3-methoxybenzyl)amino)-6,7-dihydrothiazolo[5,4-c]pyridine-5(4H)-carboxylate] | 0.14 | III (Group III more than five times the EC50 of THI0349)
COc1cccc(COCc2cccc(N(Cc3cccc(OC)c3)Cc3cccc(OC)c3)c2)c1 [Compound 90, N,N-bis(3-methoxybenzyl)-3-(((3-methoxybenzyl)oxy)methyl)aniline] | 0.09 | III (Group III more than five times the EC50 of THI0349)
COc1cccc(COCc2ccc(N(Cc3cccc(OC)c3)Cc3cccc(OC)c3)cc2)c1 [Compound 89, N,N-bis(3-methoxybenzyl)-4-((3-methoxybenzyloxy)methyl)aniline] | 0.34 | III (Group III more than five times the EC50 of THI0349)
CCOC(=O)c1csc(N(Cc2cccc(OC)c2)Cc2ccc3ncccc3c2)n1 [Compound 114, ethyl 2-((3-methoxybenzyl)(quinolin-6-ylmethyl)amino)thiazole-4-carboxylate] | 0.39 | II (Group II is more than twice that of THI0349 but less than five times THI0349's EC50)
COc1cccc(CN(Cc2ccc(-n3cccn3)cc2)c2nc(CN3CCOCC3)cs2)c1 [Compound 75, N-(4-(1H-pyrazol-1-yl)benzyl)-N-(3-methoxybenzyl)-4-(morpholinomethyl)thiazol-2-amine] | 0.59 | I (Group I maintains at least the same potency or better up to more than twice that of the EC50 of THI0349 ran on the same plate)
CCOC(=O)c1csc(N(Cc2cccc(OC)c2)Cc2cccc(OC)c2)n1 [Compound 102, ethyl 2-(bis(3-methoxybenzyl)amino)thiazole-4-carboxylate] | 0.5 | II (Group II is more than twice that of THI0349 but less than five times THI0349's EC50)
COc1ccc(CN(Cc2ccc(OC)cc2)c2nc(CO)co2)cc1 [Compound 26, (2-(bis(4-methoxybenzyl)amino)oxazol-4-yl)methanol] | 0.79 | I (Group I maintains at least the same potency or better up to more than twice that of the EC50 of THI0349 ran on the same plate)
COc1cccc(CN(Cc2cccc(OC)c2)c2nc(COCCOc3cccc(OC)c3)cs2)c1 [Compound 47, N,N-bis(3-methoxybenzyl)-4-((2-(3-methoxyphenoxy)ethoxy)methyl)thiazol-2-amine] | 0.7 | I (Group I maintains at least the same potency or better up to more than twice that of the EC50 of THI0349 ran on the same plate)
COc1ccc(CCCNC(=O)c2coc(N(Cc3cccc(OC)c3)Cc3cccc(OC)c3)n2)cc1 [Compound 20, 2-(bis(3-methoxybenzyl)amino)-N-(3-(4-methoxyphenyl)propyl)oxazole-4-carboxamide] | 0.19 | II (Group II is more than twice that of THI0349 but less than five times THI0349's EC50)
CCOC(=O)c1ccc(N(Cc2cccc(OC)c2)Cc2cccc(OC)c2)cc1 [Compound 85, ethyl 4-(bis(3-methoxybenzyl)amino)benzoate] | 0.03 | III (Group III more than five times the EC50 of THI0349)
COc1cccc(COCCOCCOCc2csc(N(Cc3cccc(OC)c3)Cc3cccc(OC)c3)n2)c1 [Compound 55, N,N-bis(3-methoxybenzyl)-4-((2-(2-((3-methoxybenzyl)oxy)ethoxy)ethoxy)methyl)thiazol-2-amine] | 1.1 | I (Group I maintains at least the same potency or better up to more than twice that of the EC50 of THI0349 ran on the same plate)
CCOC(=O)c1coc(N(Cc2cccc(OC)c2)Cc2cccc(OC)c2)n1 [Compound 14, ethyl 2-(bis(3-methoxybenzyl)amino)oxazole-4-carboxylate] | 1.0 | I (Group I maintains at least the same potency or better up to more than twice that of the EC50 of THI0349 ran on the same plate)
CCOC(=O)c1csc(N(Cc2cccc(OC)c2)CC(C)C)n1 [Compound 121, ethyl 2-(isobutyl(3-methoxybenzyl)amino)thiazole-4-carboxylate] | 0.18 | III (Group III more than five times the EC50 of THI0349)
COc1cccc(CN(Cc2cccc(OC)c2)c2nc(COCCOCCN3CCOCC3)cs2)c1 [Compound 61, N,N-bis(3-methoxybenzyl)-4-((2-(2-morpholinoethoxy)ethoxy)methyl)thiazol-2-amine] | 1.9 | I (Group I maintains at least the same potency or better up to more than twice that of the EC50 of THI0349 ran on the same plate)
OCc1coc(N(Cc2cccs2)Cc2cccs2)n1 [Compound 25, (2-(bis(thiophen-2-ylmethyl)amino)oxazol-4-yl)methanol] | 0.74 | II (Group II is more than twice that of THI0349 but less than five times THI0349's EC50)
